From patent US7105527B2, “N4-acylcytosine nucleosides for treatment of viral infections” (priority 2001, dated 2006)
Where two headings read alike, the source gives them in different places.

Experiments:
[1] = Cytotoxicity assay in HepG2 cells; format: cell-based; details: human
Protocol: (§1) The toxicity of the compounds was assessed in Vero, human PBM, CEM (human lymphoblastoid), MT-2, and HepG2 cells, as described previously (Schinazi […]., Cannon D. L., Xie […]., Smith […]. […] Cycloheximide was included as positive cytotoxic control, and untreated cells exposed to solvent were included as negative controls. The cytotoxicity IC50 was obtained from the concentration-response curve using the median effective method described previously (Chou […]. […] Belen'kii M. S. & Schinazi R. F.

[2] = Cytotoxicity assay in PBM cells; format: cell-based, human; details: human, human PBM cells
Protocol: as §1

[3] = Cytotoxicity assay in CEM cells; format: cell-based, human; details: human, CEM lymphoblastoid cells
Protocol: as §1

[4] = Cytotoxicity assay in MT-2 cells; format: cell-based; details: human
Protocol: as §1

HIV-1RF = assay: Anti-HIV (in MT-2 cells) assay, viral RNA accumulation; format: cell-based
Protocol: In a second antiviral testing system, the potency of the compounds was determined by measurement of viral RNA accumulation in HIV-1RF infected MT-2 cells (Bacheler L T, Paul M, Otto M J, Jadhav P K, Stone B A & Miller J A (1994) An assay for HIV RNIn infected cell lysates, and its use for rapid evaluation of antiviral efficacy. Antivir. Chem. Chemother. 5:111–121). The virus titer was established to determine the dilution producing 15 to 30 ng/RNA per well of HIV RNIn 3 days of infection. HIV-1 RNA was quantified using biotinylated capture and alkaline phosphatase-derivatized reporter oligonucleotides as described previously (Charvet A-S, Camplo M, Faury P, Graciet J C, Mourier N, Chermann J C & Kraus J L (1994) Inhibition of human immunodeficiency virus type 1 replication by phosphonoformate- and phosphonoacetate-2′,3′-dideoxy-3′-thiacytidine conjugates. J. Med. Chem. 37:2216–2223). In a third system, the effect of analogs on the replication of HIV-1NL4-3 was determined via the InterCompany Consortium consensus p24 assay as previously described (Jadhav P K & MacKay M F (1997) Cyclic urea amide: HIV-1 protease inhibitors with low nanomolar potency against both wild types and protease inhibitor resistant mutants of HIV. J. Med. Chem. 40:181–190). Recombinant viruses were recovered by transfecting the appropriate NL4-3 plasmid by lipofection. Virus stocks recovered 7 to 10 days post-transfection were titered on MT-4 cells to determine if the dilution produced 1,000 to 3,000 ng p24 in 4 days. This dilution was then used in drug susceptibility assays, where drug was added 24 h post infection of cells, and p24 quantified by ELISA 3 days later.

HIV-1LAl = assay: Anti-HIV (in PBM cells) assay, reverse transcriptase readout; format: cell-based
Protocol: Anti-HIV-1 activity of the compounds was determined in human peripheral blood mononuclear (PBM) cells as described previously (Schinazi […]., Cannon D., Mathis R., Lloyd R. M. Jr., […]., St. Clair M., Wilson J., Furman P. A., Painter G., Choi […]. Antimicrob. Agents Chemother. 1992, 36, 2423; Schinazi […]., Cannon D., Xie […]., Smith G., Hahn E. Antimicrob. Agents Chemother. 1990, 34, 1061). Stock solutions ([…]) of the compounds were prepared in sterile DMSO and then diluted to the desired concentration in growth medium. […] Virus obtained from the cell supernatant was quantified on day 6 after infection by a reverse transcriptase assay using (rA)n.(dT)12.18 as template-primer. […] AZT was included as positive control. The antiviral EC50 and EC90 were obtained from the concentration-response curve using the median effective method described previously (Chou […]. Enzyme Regul. 1984, 22, 27-55; Belen'kii M. S. & Schinazi R. F. Antiviral Res. 1994, 25, 1-11).

[5] = Cytotoxicity assay in Vero cells; format: cell-based; details: African green monkey
Protocol: as §1

HepG2 cells = assay: Cytotoxicity assay in HepG2 cells; format: cell-based
Protocol: as §1

human PBM cells = assay: Cytotoxicity assay in PBM cells; format: cell-based
Protocol: as §1

[6] = system: CEM (human lymphoblastoid) cells; assay: Cytotoxicity assay in CEM cells; format: cell-based
Protocol: as §1

Vero cells = assay: Cytotoxicity assay in Vero cells; format: cell-based
Protocol: as §1

[7] = Table 1, read-out: Cytotoxicity in different cells (IC50, μM) HepG2
[8] = Table 1, read-out: Cytotoxicity in different cells (IC50, μM) PBM
[9] = Table 1, read-out: Cytotoxicity in different cells (IC50, μM) CEM
[10] = Table 1, read-out: Cytotoxicity in different cells (IC50, μM) MT-2
[11] = Human immunodeficiency virus 1, MT2, Table 1, EC90, MT-2 cells, read-out: Anti-HIV-1 activity in different cells (EC90, μM) MT-2
[12] = Human immunodeficiency virus 1, PBMC, Table 1, read-out: Anti-HIV-1 activity in different cells (EC90, μM) PBM
[13] = Table 1, read-out: Cytotoxicity in different cells (IC50, μM) Vero
[14] = Table 1, read-out: Anti-HIV-1 activity in different cells (EC90, μM) PBM
[15] = Table 2, read-out: Cytotoxicity in different cells (IC50, μM) HepG2
[16] = Table 2, read-out: Cytotoxicity in different cells (IC50, μM) PBM
[17] = Table 2, read-out: Cytotoxicity in different cells (IC50, μM) MT-2
[18] = Human immunodeficiency virus 1, MT2, Table 2, EC90, MT-2 cells, read-out: Anti-HIV-1 activity in different cells (EC90, μM) MT-2
[19] = Human immunodeficiency virus 1, PBMC, Table 2, read-out: Anti-HIV-1 activity in different cells (EC90, μM) PBM
[20] = Table 2, read-out: Cytotoxicity in different cells (IC50, μM) CEM
[21] = Table 2, read-out: Cytotoxicity in different cells (IC50, μM) Vero

Row | SMILES | IC50 [1, 7] | IC50 [2, 8] | IC50 [3, 9] | IC50 [4, 10] | EC90 (HIV-1RF; [11]) | EC90 (HIV-1LAl; [12]) | IC50 [5, 13] | IC50 [1, 15] | IC50 [2, 16] | IC50 [4, 17] | EC90 (HIV-1RF; [18]) | EC90 (HIV-1LAl; [19]) | IC50 [3, 20] | IC50 [5, 21] | other results
1 | Cc1cccc(C(=O)Nc2nc(=O)n([C@H]3CC[C@@H](CO)O3)cc2F)c1 [Compound 23, β-D-2′,3′-Dideoxy-5-fluoro-N-m-toluoylcytidine] | > 100 µM | 8.4 µM | > 100 µM | > 50 µM | 0.24 µM | 0.012 µM | 61.1 µM | – | – | – | – | – | – | – | –
2 | CCCCc1ccc(C(=O)Nc2nc(=O)n([C@H]3CC[C@@H](CO)O3)cc2F)cc1 [Compound 27, β-D-N^4-(4-n-Butylbenzoyl)-2,3′-dideoxy-5-fluorocytidine] | – | – | – | – | – | – | – | – | – | – | – | – | – | – | IC50 (HepG2 cells; [7]): 1.9 µM; IC50 (human PBM cells; [8]): 1.1 µM; IC50 [6, 9]: 1.3 µM; EC90 (HIV-1LAl; [14]): 0.31 µM; IC50 (Vero cells; [13]): 3.2 µM
3 | CC(C)(C)c1ccc(C(=O)Nc2nc(=O)n([C@H]3CC[C@@H](CO)O3)cc2F)cc1 [Compound 28, β-D-N^4-(4-tert-Butylbenzoyl)-2,3′-dideoxy-5-fluorocytidine] | – | – | – | – | – | – | – | – | – | – | – | – | – | – | IC50 (HepG2 cells; [7]): 21.3 µM; IC50 (human PBM cells; [8]): 12.5 µM; IC50 [6, 9]: 6 µM; EC90 (HIV-1RF; Table 1, EC90, MT-2 cells, read-out: Anti-HIV-1 activity in different cells (EC90, μM) MT-2): 0.6 µM; EC90 (HIV-1LAl; [14]): 0.088 µM; IC50 (Vero cells; [13]): 25.9 µM
4 | O=C(Nc1nc(=O)n([C@H]2CC[C@@H](CO)O2)cc1F)c1cccs1 [Compound 30, β-D-2′,3′-Dideoxy-5-fluoro-N^4-(2-thiophenecarbonyl)cytidine] | 37.9 µM | 19.4 µM | 13.7 µM | > 50 µM | 0.4 µM | 0.052 µM | 23.9 µM | – | – | – | – | – | – | – | –
5 | O=C(Nc1nc(=O)n([C@H]2CC[C@@H](CO)O2)cc1F)c1cc2ccccc2s1 [Compound 32, β-D-2′,3′-Dideoxy-5-fluoro-N^4-(benzo[b]thiophene-2-carbonyl)cytidine] | 1.3 µM | 23.5 µM | 4.5 µM | > 50 µM | 0.3 µM | 0.19 µM | 39.6 µM | – | – | – | – | – | – | – | –
6 | O=C(Nc1nc(=O)n([C@H]2CC[C@@H](CO)O2)cc1F)C1CCCCC1 [Compound 33, β-D-N^4-(Cyclohexanecarbonyl)-2′,3′-dideoxy-5-fluorocytidine] | 6.5 µM | 4.5 µM | 6.4 µM | 50 µM | 0.3 µM | 0.086 µM | 11.8 µM | – | – | – | – | – | – | – | –
7 | COc1ccc(C(=O)Nc2nc(=O)n([C@H]3C=C[C@@H](CO)O3)cc2F)cc1 [Compound 42, β-D-N^4-p-Anisoyl-2′,3′-didehydro-2′,3′dideoxy-5-fluorocytidine] | – | – | – | – | – | – | – | > 100 µM | > 100 µM | > 50 µM | 0.58 µM | 0.7 µM | – | – | –
8 | O=C(Nc1nc(=O)n([C@H]2C=C[C@@H](CO)O2)cc1F)c1cccc([N+](=O)[O-])c1 [Compound 46, β-D-2′,3′-Didehydro-2,3′-dideoxy-5-fluoro-N^4-(3-nitrobenzoyl)cytidine] | – | – | – | – | – | – | – | > 100 µM | 11.9 µM | > 50 µM | 0.58 µM | 0.93 µM | 54.5 µM | > 100 µM | –
9 | Cc1ccc(C(=O)Nc2nc(=O)n([C@H]3C=C[C@@H](CO)O3)cc2F)cc1 [Compound 48, β-D-2′,3′-Didehydro-2′,3′-dideoxy-5-fluoro-N^4-p-toluoylcytidine] | – | – | – | – | – | – | – | > 100 µM | 13.2 µM | > 50 µM | 0.21 µM | 0.32 µM | 31.9 µM | > 100 µM | –
10 | Cc1cccc(C(=O)Nc2nc(=O)n([C@H]3C=C[C@@H](CO)O3)cc2F)c1 [Compound 49, β-D-2,3′-Didehydro-2,3′-dideoxy-5-fluoro-N^4-m-toluoylcytidine] | – | – | – | – | – | – | – | > 100 µM | 57.1 µM | > 50 µM | – | 0.7 µM | 34.9 µM | 149 µM | EC90 (HIV-1RF; Human immunodeficiency virus 1, MT2, read-out: Anti-HIV-1 activity in different cells (EC90, μM) MT-2): 0.8 µM
11 | CCCCc1ccc(C(=O)Nc2nc(=O)n([C@H]3C=C[C@@H](CO)O3)cc2F)cc1 [Compound 52, β-D-N^4-(4-n-Butylbenzoyl)-2′,3′-didehydro-2,3′-dideoxy-5-fluoro-^4cytidine] | – | – | – | – | – | – | – | – | – | – | – | – | – | – | IC50 (HepG2 cells; [15]): 5.1 µM; IC50 (human PBM cells; [16]): 7.3 µM; IC50 [6, 20]: 8.5 µM; EC90 (HIV-1LAl; Table 2, read-out: Anti-HIV-1 activity in different cells (EC90, μM) PBM): 3.1 µM; IC50 (Vero cells; [21]): 29.4 µM
12 | O=C(Nc1nc(=O)n([C@H]2C=C[C@@H](CO)O2)cc1F)C1CCCC1 [Compound 57, β-D-N^4-(Cyclopentanecarbonyl)-2′,3′-didehydro-2′,3′-dideoxy-5-fluorocytidine] | – | – | – | – | – | – | – | > 100 µM | 52.9 µM | > 50 µM | 0.51 µM | 0.4 µM | 19.6 µM | 87.6 µM | –
13 | O=C(Nc1nc(=O)n([C@H]2C=C[C@@H](CO)O2)cc1F)C1CCCCC1 [Compound 58, β-D-N-(Cyclohexanecarbonyl)-2′ 3′-didehydro-2′,3′-dideoxy-5-fluorocytidine] | – | – | – | – | – | – | – | > 100 µM | 11.7 µM | > 50 µM | 0.38 µM | 0.6 µM | 11.2 µM | > 100 µM | –
